Values quoted from earlier work, collected in patent EP1921109A2, “Grafted cyclodextrin” (Cellresin Technologies, LLC, priority 2004, dated 2005).

conditions: aqueous solutions

SMILES | Concentrations of TCA detected in untrained panels
COc1c(Cl)cc(Cl)cc1Cl [TCA, 2,4,6-trichloroanisole] | 20 - 30 ppt

same assay, conditions: aqueous solutions; as low as

SMILES | Concentrations of TCA detected by trained panels
COc1c(Cl)cc(Cl)cc1Cl [TCA, 2,4,6-trichloroanisole] | 5 - 10 ppt

conditions: not given

SMILES | Flavor Threshold ppb in Water | Odor Threshold ppb in Water
CCCCCCCCCC=O [Decanal] | 1.07 ppb | 0.53 ppb
CCCC(=O)OCC [Ethyl butyrate] | 0.13 ppb | 0.13 ppb
CC(C)=CCC/C(C)=C/C=O [Geranial] | 40.0 ppb | –
CCCCCC=O [Hexanal] | 3.66 ppb | 9.18 ppb
C=C(C)[C@H]1CC=C(C)CC1 [Limonene] | 210 ppb | 60 ppb

Continued, values first:

Flavor Threshold ppb in Water | Odor Threshold ppb in Water | SMILES
3.8 ppb | 5.3 ppb | C=CC(C)(O)CCC=C(C)C (centres unmarked) [Linalool]
41.4 ppb | 85 ppb | CC(C)=CCC/C(C)=C\C=O [Neral]
0.52 ppb | 1.41 ppb | CCCCCCCC=O [Octanal]
1014 ppb | 9.5 ppb | CC1=CCC2CC1C2(C)C (stereo not drawn) [α-Pinene]
300 ppb | 280 ppb | CC1=CCC(C(C)(C)O)CC1 (stereo not drawn) [α-Terpineol]
42 ppb | 36 ppb | C=CC(=C)CCC=C(C)C [β-Myrcene]
